Measured values reported in ChEMBL document CHEMBL3596090, “Discovery of novel pyrazole-containing benzamides as potent RORγ inverse agonists” (Bioorg Med Chem Lett, 2015).
In brackets after ≈: the same amount, converted by molar mass.

Tests used:
[1] = target: T1, Nuclear receptor ROR-gamma (Mus musculus, UniProt P51450); assay: Inverse agonist activity at RORgamma in C57BL/6 mouse splenocytes assessed as reduction of IL-17 production after 2 days by ELISA; assay type: cell-based
T1 sequence (P51450 whole entry): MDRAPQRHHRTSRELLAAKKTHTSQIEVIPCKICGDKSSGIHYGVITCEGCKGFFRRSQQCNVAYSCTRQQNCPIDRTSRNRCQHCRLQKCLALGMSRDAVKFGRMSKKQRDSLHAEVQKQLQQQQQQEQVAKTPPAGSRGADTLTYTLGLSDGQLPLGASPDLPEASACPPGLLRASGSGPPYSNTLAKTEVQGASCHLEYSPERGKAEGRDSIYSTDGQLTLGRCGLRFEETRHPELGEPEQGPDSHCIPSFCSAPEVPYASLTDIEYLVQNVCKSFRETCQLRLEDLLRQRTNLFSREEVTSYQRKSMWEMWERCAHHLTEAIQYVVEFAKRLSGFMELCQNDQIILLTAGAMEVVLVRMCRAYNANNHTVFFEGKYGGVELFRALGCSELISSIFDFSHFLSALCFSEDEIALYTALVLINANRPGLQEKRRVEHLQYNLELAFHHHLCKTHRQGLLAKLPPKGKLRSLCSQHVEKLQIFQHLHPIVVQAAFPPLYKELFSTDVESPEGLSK

[2] = Kinetic aqueous solubility of the compound; assay type: physicochemical; details: buffer; read-out: Kinetic_solubility
[3] = Percentage unbound in human plasma; assay type: ADME, cell-free
[4] = Percentage unbound in rat plasma; assay type: ADME, cell-free
[5] = target: T2, Nuclear receptor ROR-alpha (Homo sapiens, UniProt P35398); assay: Inverse agonist activity at RORalpha (unknown origin)
T2 sequence (P35398 whole entry): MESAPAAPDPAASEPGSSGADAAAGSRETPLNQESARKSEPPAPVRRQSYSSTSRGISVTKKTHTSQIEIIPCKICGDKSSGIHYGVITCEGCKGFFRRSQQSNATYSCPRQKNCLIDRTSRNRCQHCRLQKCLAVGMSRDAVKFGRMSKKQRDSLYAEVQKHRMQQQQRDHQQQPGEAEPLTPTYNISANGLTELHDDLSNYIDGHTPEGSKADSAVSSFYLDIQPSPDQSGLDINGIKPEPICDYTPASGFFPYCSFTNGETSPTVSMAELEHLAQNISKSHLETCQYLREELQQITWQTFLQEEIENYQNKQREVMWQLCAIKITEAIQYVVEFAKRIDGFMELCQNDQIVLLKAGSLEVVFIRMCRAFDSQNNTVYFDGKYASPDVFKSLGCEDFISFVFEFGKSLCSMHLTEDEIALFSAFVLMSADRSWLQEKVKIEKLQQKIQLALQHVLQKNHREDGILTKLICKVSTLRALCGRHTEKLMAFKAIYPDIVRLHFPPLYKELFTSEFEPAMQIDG

[6] = target: T3, Nuclear receptor ROR-beta (Homo sapiens, UniProt Q92753); assay: Inverse agonist activity at RORbeta (unknown origin)
T3 sequence (Q92753 whole entry): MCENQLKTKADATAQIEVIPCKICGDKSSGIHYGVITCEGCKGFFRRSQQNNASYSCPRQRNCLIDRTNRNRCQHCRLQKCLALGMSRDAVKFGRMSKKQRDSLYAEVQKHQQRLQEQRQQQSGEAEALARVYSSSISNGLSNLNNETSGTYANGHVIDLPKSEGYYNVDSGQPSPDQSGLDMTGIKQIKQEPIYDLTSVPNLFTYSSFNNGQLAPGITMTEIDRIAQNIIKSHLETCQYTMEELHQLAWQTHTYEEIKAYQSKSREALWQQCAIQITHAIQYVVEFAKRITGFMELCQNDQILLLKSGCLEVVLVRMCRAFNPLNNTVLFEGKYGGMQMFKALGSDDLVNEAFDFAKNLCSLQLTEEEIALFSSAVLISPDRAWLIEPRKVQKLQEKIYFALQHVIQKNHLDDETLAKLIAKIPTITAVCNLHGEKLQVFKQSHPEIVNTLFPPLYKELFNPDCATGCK

[7] = target: T4, Nuclear receptor subfamily 1 group I member 2 (Homo sapiens, UniProt O75469); assay: Activation of PXR (unknown origin)
T4 sequence (O75469 whole entry): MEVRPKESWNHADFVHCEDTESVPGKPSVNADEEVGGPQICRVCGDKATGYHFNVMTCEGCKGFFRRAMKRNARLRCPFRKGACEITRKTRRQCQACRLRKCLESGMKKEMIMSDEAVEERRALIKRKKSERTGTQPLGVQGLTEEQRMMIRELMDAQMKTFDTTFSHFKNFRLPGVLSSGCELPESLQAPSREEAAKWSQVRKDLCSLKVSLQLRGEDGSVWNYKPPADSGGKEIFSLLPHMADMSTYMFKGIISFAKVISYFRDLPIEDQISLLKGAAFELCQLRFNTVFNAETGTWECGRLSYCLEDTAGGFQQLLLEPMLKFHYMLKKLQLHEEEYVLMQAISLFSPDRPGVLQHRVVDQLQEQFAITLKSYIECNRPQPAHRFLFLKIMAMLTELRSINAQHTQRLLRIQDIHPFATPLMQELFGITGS

SMILES | EC50 [1] | solubility kinetic [2] | fraction unbound [3] | fraction unbound [4] | EC50 [5] | EC50 [6] | EC50 [7]
[2H]C([2H])([2H])N(C(=O)c1c(F)cccc1Cl)c1ccc(-c2cc(NC(=O)N3CC4(COC4)C3)nn2C(C)C)cc1N1CC2CC2C1 (centres undefined) | 148 nM | – | – | – | – | – | –
[2H]C([2H])([2H])N(C(=O)c1c(F)cccc1Cl)c1ccc(-c2cc(NC(=O)[C@H]3C[C@@H](O)C3)nn2C(C)C)cc1N1CC2CC2C1 (some centres undefined) | 134 nM | – | – | – | – | – | –
[2H]C([2H])([2H])N(C(=O)c1c(F)cccc1Cl)c1ccc(-c2cc(NC(=O)C3CC3)nn2C(C)C)cc1N1CC2CC2C1 (centres undefined) | 88 nM | – | – | – | – | – | –
[2H]C([2H])([2H])N(C(=O)c1c(Cl)cccc1Cl)c1ccc(-c2cc(NC(C)=O)nn2C(C)C)cc1N1CC2CC2C1 (centres undefined) | 73 nM | 0.8 µg/mL (≈ 1.51 µM) | 0.004 | 0.001 | 1500 nM | 600 nM | 500 nM
[2H]C([2H])([2H])N(C(=O)c1c(F)cccc1Cl)c1ccc(-c2cc(NC(C)=O)nn2C(C)C)cc1N1CCCC1 | – | 12 µg/mL (≈ 24 µM) | 0.017 | 0.009 | 1400 nM | 1000 nM | 800 nM
[2H]C([2H])([2H])N(C(=O)c1c(F)cccc1Cl)c1ccc(-c2cc(NC(=O)[C@H]3C[C@H](O)C3)nn2C(C)C)cc1N1CC2CC2C1 (some centres undefined) | 134 nM | – | – | – | – | – | –
CC(=O)Nc1nc(C(C)C)c(-c2cnc(N(C)C(=O)c3c(F)cccc3Cl)c(N3CCCCC3)c2)s1 | – | 0.3 µg/mL (≈ 0.566 µM) | 0.003 | 0.002 | 2200 nM | 800 nM | 400 nM
[2H]C([2H])([2H])N(C(=O)c1c(F)cccc1Cl)c1ncc(-c2cc(NC(C)=O)nn2C(C)C)cc1N1CC2CC2C1 (centres undefined) | – | 48 µg/mL (≈ 93.4 µM) | 0.056 | 0.022 | > 10000 nM | 6200 nM | 1300 nM
[2H]C([2H])([2H])N(C(=O)c1c(F)cccc1Cl)c1ccc(-c2cc(NC(C)=O)nn2C(C)C)cc1-c1ccccc1 | – | – | 0.004 | 0.004 | 2100 nM | 1100 nM | > 10000 nM
[2H]C([2H])([2H])N(C(=O)c1c(F)cccc1Cl)c1ccc(-c2cc(NC(C)=O)nn2C(C)C)cc1OCC(F)(F)F | – | 27 µg/mL (≈ 50.9 µM) | – | – | – | – | –
[2H]C([2H])([2H])N(C(=O)c1c(F)cccc1Cl)c1ccc(-c2cc(C(N)=O)nn2C(C)C)cc1OCC(F)(F)F | 2000 nM | 32 µg/mL (≈ 62 µM) | 0.059 | 0.031 | – | – | –
[2H]C([2H])([2H])N(C(=O)c1c(F)cccc1Cl)c1ccc(-c2cc(NC(C)=O)nn2C2CCC2)cc1N1CC2CC2C1 (centres undefined) | 199 nM | 0.5 µg/mL (≈ 0.952 µM) | 0.003 | 0.0004 | – | – | –
[2H]C([2H])([2H])N(C(=O)c1c(F)cccc1Cl)c1ccc(-c2cc(NC(C)=O)nn2C(C)C)cc1OCC(C)C | – | – | 0.003 | 0.002 | – | – | –
[2H]C([2H])([2H])N(C(=O)c1c(F)cccc1Cl)c1ccc(-c2cc(NC(=O)NC)nn2C(C)C)cc1N1CC2CC2C1 (centres undefined) | 354 nM | – | – | – | – | – | –
CC(=O)Nc1cc(-c2ccc(N(C)C(=O)c3c(F)cccc3Cl)c(N3CC4CC4C3)c2)n(C(C)C)n1 (centres undefined) | 110 nM | – | 0.009 | 0.002 | 1900 nM | 1700 nM | –
[2H]C([2H])([2H])N(C(=O)c1c(C)cccc1F)c1ccc(-c2cc(NC(C)=O)nn2C(C)C)cc1N1CC2CC2C1 (centres undefined) | 355 nM | 17 µg/mL (≈ 34.5 µM) | 0.011 | 0.002 | 2000 nM | 1500 nM | > 10000 nM
[2H]C([2H])([2H])N(C(=O)c1c(F)cccc1Cl)c1ccc(-c2cc(NC(=O)CC)nn2C(C)C)cc1N1CC2CC2C1 (centres undefined) | 33 nM | – | – | – | – | – | –
[2H]C([2H])([2H])N(C(=O)c1c(F)cccc1Cl)c1ccc(-c2cc(NC(=O)CO)nn2C(C)C)cc1N1CC2CC2C1 (centres undefined) | 120 nM | – | – | – | – | – | –
[2H]C([2H])([2H])N(C(=O)c1c(F)cccc1Cl)c1ccc(-c2cc(NC(C)=O)nn2C(C)C)cc1N1CCCCC1 | 11 nM | 1.3 µg/mL (≈ 2.52 µM) | 0.004 | 0.001 | 1100 nM | 800 nM | > 10000 nM
[2H]C([2H])([2H])N(C(=O)c1c(F)cccc1Cl)c1ccc(-c2cc(NC(C)=O)nn2CC(C)(C)C)cc1N1CC2CC2C1 (centres undefined) | – | 0.8 µg/mL (≈ 1.48 µM) | – | – | – | – | –
[2H]C([2H])([2H])N(C(=O)c1c(F)cccc1Cl)c1ccc(-c2cc(NC(C)=O)nn2C(C)C2CC2)cc1N1CC2CC2C1 (centres undefined) | – | 0.5 µg/mL (≈ 0.928 µM) | – | – | 9300 nM | 1300 nM | 900 nM
[2H]C([2H])([2H])N(C(=O)c1c(F)cccc1Cl)c1ccc(-c2cc(NC(C)=O)nn2C2CCCC2)cc1N1CC2CC2C1 (centres undefined) | 60 nM | 0.1 µg/mL (≈ 0.186 µM) | 0.002 | < 0.0005 | 1300 nM | 1300 nM | 500 nM
[2H]C([2H])([2H])N(C(=O)c1c(F)cccc1Cl)c1ccc(-c2cc(NC(C)=O)nn2C(C)C)cc1OCC1CCC1 | 3110 nM | – | – | – | 1200 nM | 900 nM | > 10000 nM
[2H]C([2H])([2H])N(C(=O)c1c(F)cccc1Cl)c1ccc(-c2cc(NC(C)=O)nn2CC2CC2)cc1N1CC2CC2C1 (centres undefined) | 201 nM | 10.1 µg/mL (≈ 19.2 µM) | 0.005 | 0.002 | 1800 nM | 1800 nM | 8800 nM
[2H]C([2H])([2H])N(C(=O)c1c(F)cccc1Cl)c1ccc(-c2cnn(C)c2C(C)C)cc1OCC(F)(F)F | 818 nM | < 0.1 µg/mL | 0.009 | 0.006 | – | – | –
